Earlier results as cited in patent publication US6448244B1, “Water soluble azoles as broad-spectrum antifungals” (Janssen Pharmaceutica N.V., priority 1998, dated 2002).

Details: Saksena et al., Bioorg. Med. Chem. Lett. (1995), 5(2), 127-132

## CN(C)CCn1ncn(-c2ccc(N3CCN(c4ccc(OC[C@@H]5CO[C@@](Cn6cncn6)(c6ccc(F)cc6F)C5)cc4)CC3)cc2)c1=O (relative stereo) [(3R-cis)-4-[4-[4-[4-[[5-(2,4-difluorophenyl)tetrahydro-5-(1H-1,2,4-triazol-1-ylmethyl)-3-furanyl]methoxy]phenyl]-1-piperazinyl]phenyl]-2-[2-(dimethylamino)ethyl]-2,4-dihydro-3H-1,2,4-triazol-3-one]
  antifungal activity compared to SCH 51048: profoundly less active
